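GI50: concentration for 50% inhibition of growth. TGI: total growth inhibition.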
Assays:
Experiment in all cases: growth of human tumour cells (NCI), 384-well format
SF-268 CNS = test system: SF-268 CNS
MOLT-4 leukemia = test system: MOLT-4 leukemia
SF-539 CNS = test system: SF-539 CNS
MDA-MB-231 breast = test system: MDA-MB-231 breast
SR leukemia = test system: SR leukemia
MDA-MB-435 melanoma = test system: MDA-MB-435 melanoma
IGROV1 ovarian = test system: IGROV1 ovarian
SK-MEL-5 melanoma = test system: SK-MEL-5 melanoma
DU-145 prostate = test system: DU-145 prostate
HCT-15 colon = test system: HCT-15 colon
UACC-62 melanoma = test system: UACC-62 melanoma
OVCAR-3 ovarian = test system: OVCAR-3 ovarian
MCF7 breast = test system: MCF7 breast
OVCAR-8 ovarian = test system: OVCAR-8 ovarian
ACHN renal = test system: ACHN renal
MALME-3M melanoma = test system: MALME-3M melanoma
RPMI-8226 leukemia = test system: RPMI-8226 leukemia
U251 glioblastoma = test system: U251 glioblastoma
EKVX NSCLC = test system: EKVX NSCLC
NCI-H322M lung = test system: NCI-H322M lung
LOX IMVI melanoma = test system: LOX IMVI melanoma
A549 NSCLC = test system: A549 NSCLC
UO-31 renal = test system: UO-31 renal
NCI-H226 lung = test system: NCI-H226 lung
NCI-H460 NSCLC = test system: NCI-H460 NSCLC
KM12 colon = test system: KM12 colon
UACC-257 melanoma = test system: UACC-257 melanoma
T-47D breast = test system: T-47D breast
SW-620 colon = test system: SW-620 colon
M14 melanoma = test system: M14 melanoma
SK-MEL-2 melanoma = test system: SK-MEL-2 melanoma
HCT-116 colon = test system: HCT-116 colon
MDA-MB-468 breast = test system: MDA-MB-468 breast
HS 578T breast = test system: HS 578T breast
SNB-75 CNS = test system: SNB-75 CNS
SF-295 CNS = test system: SF-295 CNS
NCI-H23 lung = test system: NCI-H23 lung
SK-MEL-28 melanoma = test system: SK-MEL-28 melanoma
SK-OV-3 ovarian = test system: SK-OV-3 ovarian
PC-3 prostate = test system: PC-3 prostate
COLO 205 colon = test system: COLO 205 colon
786-0 renal = test system: 786-0 renal
SNB-19 CNS = test system: SNB-19 CNS
HOP-62 NSCLC = test system: HOP-62 NSCLC
CCRF-CEM leukemia = test system: CCRF-CEM leukemia
BT-549 breast = test system: BT-549 breast
OVCAR-5 ovarian = test system: OVCAR-5 ovarian
HL-60(TB) leukemia = test system: HL-60(TB) leukemia
A498 renal = test system: A498 renal
HCC-2998 colon = test system: HCC-2998 colon
CAKI-1 renal = test system: CAKI-1 renal
TK-10 renal = test system: TK-10 renal
NCI-H522 lung = test system: NCI-H522 lung
HOP-92 NSCLC = test system: HOP-92 NSCLC
OVCAR-4 ovarian = test system: OVCAR-4 ovarian
K-562 leukemia = test system: K-562 leukemia
NCI/ADR-RES ovarian = test system: NCI/ADR-RES ovarian
SN12C renal = test system: SN12C renal
HT29 colon = test system: HT29 colon

SMILES: CO[C@H]1C[C@@H]2CC[C@@H](C)[C@@](O)(O2)C(=O)C(=O)N2CCCC[C@H]2C(=O)O[C@H]([C@H](C)C[C@@H]2CC[C@@H](OCCO)[C@H](OC)C2)CC(=O)[C@H](C)C=C(C)[C@@H](O)[C@@H](OC)C(=O)[C@H](C)C[C@H](C)/C=C/C=C/C=C1C
- GI50 (SF-268 CNS): 12.6 µM
- TGI (SF-268 CNS): 25.3 µM
- GI50 (MOLT-4 leukemia): < 0.01 µM
- TGI (MOLT-4 leukemia): 2.24 µM
- GI50 (SF-539 CNS): 3.06 µM
- TGI (SF-539 CNS): 19.7 µM
- GI50 (MDA-MB-231 breast): 12.5 µM
- TGI (MDA-MB-231 breast): 25.1 µM
- GI50 (SR leukemia): < 0.01 µM
- TGI (SR leukemia): 1.3 µM
- GI50 (MDA-MB-435 melanoma): 16.2 µM
- TGI (MDA-MB-435 melanoma): 29.9 µM
- GI50 (IGROV1 ovarian): < 0.01 µM
- TGI (IGROV1 ovarian): 11.2 µM
- GI50 (SK-MEL-5 melanoma): 0.414 µM
- TGI (SK-MEL-5 melanoma): 3.78 µM
- GI50 (DU-145 prostate): 7.21 µM
- TGI (DU-145 prostate): 23.4 µM
- GI50 (HCT-15 colon): 1.43 µM
- TGI (HCT-15 colon): 18.7 µM
- GI50 (UACC-62 melanoma): 6.61 µM
- TGI (UACC-62 melanoma): 14.9 µM
- GI50 (OVCAR-3 ovarian): 4.68 µM
- TGI (OVCAR-3 ovarian): 21.8 µM
- GI50 (MCF7 breast): < 0.0154 µM
- TGI (MCF7 breast): 12.9 µM
- GI50 (OVCAR-8 ovarian): 10.9 µM
- TGI (OVCAR-8 ovarian): 22.8 µM
- GI50 (ACHN renal): 2.93 µM
- TGI (ACHN renal): 22.2 µM
- GI50 (MALME-3M melanoma): < 0.01 µM
- TGI (MALME-3M melanoma): 14.6 µM
- GI50 (RPMI-8226 leukemia): < 0.01 µM
- TGI (RPMI-8226 leukemia): 1.87 µM
- GI50 (U251 glioblastoma): 5.77 µM
- TGI (U251 glioblastoma): 21.1 µM
- GI50 (EKVX NSCLC): 1.79 µM
- TGI (EKVX NSCLC): 20.4 µM
- GI50 (NCI-H322M lung): 6.97 µM
- TGI (NCI-H322M lung): 22.1 µM
- GI50 (LOX IMVI melanoma): 6.02 µM
- TGI (LOX IMVI melanoma): 20.9 µM
- TGI (A549 NSCLC): 20 µM
- GI50 (UO-31 renal): < 0.01 µM
- GI50 (NCI-H226 lung): 9.49 µM
- TGI (NCI-H226 lung): 21.8 µM
- GI50 (NCI-H460 NSCLC): 0.377 µM
- TGI (NCI-H460 NSCLC): 18.7 µM
- GI50 (KM12 colon): 11.2 µM
- TGI (KM12 colon): 23.3 µM
- GI50 (UACC-257 melanoma): 16.5 µM
- TGI (UACC-257 melanoma): 30.1 µM
- TGI (T-47D breast): 16.2 µM
- GI50 (SW-620 colon): 11.8 µM
- TGI (SW-620 colon): 16.4 µM
- GI50 (M14 melanoma): 12.1 µM
- TGI (M14 melanoma): 24.5 µM
- GI50 (SK-MEL-2 melanoma): 14.2 µM
- TGI (SK-MEL-2 melanoma): 27.2 µM
- GI50 (HCT-116 colon): 8.33 µM
- TGI (HCT-116 colon): 21.9 µM
- GI50 (MDA-MB-468 breast): < 0.01 µM
- TGI (MDA-MB-468 breast): 8.91 µM
- TGI (HS 578T breast): 7.24 µM
- GI50 (SNB-75 CNS): 0.124 µM
- TGI (SNB-75 CNS): 4.55 µM
- TGI (SF-295 CNS): 16 µM
- GI50 (NCI-H23 lung): 11.6 µM
- TGI (NCI-H23 lung): 23.9 µM
- GI50 (SK-MEL-28 melanoma): 11.9 µM
- TGI (SK-MEL-28 melanoma): 16.5 µM
- GI50 (SK-OV-3 ovarian): 12.1 µM
- TGI (SK-OV-3 ovarian): 25.4 µM
- GI50 (PC-3 prostate): 0.549 µM
- TGI (PC-3 prostate): 17.7 µM
- GI50 (COLO 205 colon): 14.6 µM
- TGI (COLO 205 colon): 27.7 µM
- GI50 ([…]-0 renal): 0.777 µM
- TGI (786-0 renal): 21.1 µM
- GI50 (SNB-19 CNS): 12.8 µM
- TGI (SNB-19 CNS): 25.5 µM
- GI50 (HOP-62 NSCLC): 0.548 µM
- TGI (HOP-62 NSCLC): 20.7 µM
- GI50 (CCRF-CEM leukemia): < 0.01 µM
- TGI (CCRF-CEM leukemia): 2.84 µM
- TGI (BT-549 breast): 15.6 µM
- GI50 (OVCAR-5 ovarian): 15.2 µM
- TGI (OVCAR-5 ovarian): 29.1 µM
- GI50 (HL-60(TB) leukemia): 2.16 µM
- TGI (HL-60(TB) leukemia): 6.09 µM
- GI50 (A498 renal): < 0.0276 µM
- TGI (A498 renal): 17.4 µM
- GI50 (HCC-2998 colon): 7.55 µM
- TGI (HCC-2998 colon): 22.9 µM
- GI50 (CAKI-1 renal): 5.67 µM
- TGI (CAKI-1 renal): 21.4 µM
- GI50 (TK-10 renal): 13.6 µM
- TGI (TK-10 renal): 31 µM
- GI50 (NCI-H522 lung): 9.37 µM
- TGI (NCI-H522 lung): 22 µM
- GI50 (HOP-92 NSCLC): 11.2 µM
- TGI (HOP-92 NSCLC): 23.4 µM
- GI50 (OVCAR-4 ovarian): 10.8 µM
- TGI (OVCAR-4 ovarian): 24.1 µM
- GI50 (K-562 leukemia): 2.04 µM
- TGI (K-562 leukemia): 15.3 µM
- GI50 (NCI/ADR-RES ovarian): 13.5 µM
- TGI (NCI/ADR-RES ovarian): 28.7 µM
- GI50 (SN12C renal): 11.7 µM
- TGI (SN12C renal): 24.2 µM
- GI50 (HT29 colon): 11.5 µM
- TGI (HT29 colon): 23.7 µM
